Experimental data from article PMC3430621, “HPLC–MS/MS Analysis of a Traditional Chinese Medical Formulation of Bu-Yang-Huan-Wu-Tang and Its Pharmacokinetics after Oral Administration to Rats” (PLoS ONE, 2012).
Where two headings read alike, the source gives them in different places.

Assays:
[1] = Pharmacokinetics in conscious freely moving rats after oral administration of BYHWT extract (HPLC-MS/MS of plasma); format: in vivo, Sprague-Dawley rats; details: for Cl / Cmax / Tmax / half-life: male, Sprague-Dawley
From the text: The protocol listed below has been reviewed and approved by the Institutional Animal Care and Use Committee (IACUC; approval number 1010409) by the Institutional Animal Experimentation Committee of the National Yang-Ming University. Male pathogen-free Sprague-Dawley rats (250±50 g body weight) were obtained from the Laboratory Animal Center of National Yang Ming University. The animals had free access to food (Laboratory rodent diet 5P14, PMI Feeds, Richmond, IN, USA) and water was allowed at all times. All animal experiments followed the National Yang-Ming University guidelines and procedures for the care of laboratory animals. […] Experimental rats were initially anesthetized with pentobarbital (50 mg/kg, i.p.), and polyethylene tubing was implanted in the right jugular vein for blood sampling. The tube crossed the subcutaneous tissue and was fixed at its exit from the dorsal neck region. The patency tubing was maintained by filling with heparinized saline (20 units/mL). After surgery, the rats were placed in experimental cages and allowed to recuperate for one day. The rats were kept fasted for 12 h and water were available ad libitum before the BYHWT administration. […] In our study, the dose of BYHWT (10 g/kg) was appropriate for oral administration in rats. […] The condensed blood collection in the absorption phase is to figure out the maximum concentration and the time when it reaches the maximum concentration. The time points in the elimination phase are not close. This strategy is commonly used in the pharmacokinetic studies but the total blood consumption should not be over 20% of body blood. In these experimental rats, the total blood sampling volume is within 20% during 12 h. Plasma was separated by centrifuging the blood sample at 6000 rpm for 10 min at 4°C. […] The samples were vortexed and centrifuged at 16,100×g for 10 min. In our micro-analysis, less than 200 μL is needed. Actually, the collected blood volume is around 120-150 μL for each time point. After centrifugation, the plasma samples (50 μL) were vortex-mixed with 100 μL of acetonitrile. The supernatants were collected and filtered. Around 20 μL aliquot of the supernatants was transferred into the vial for analysis by HPLC-MS/MS system. The acetonitrile but not the real sample was used in the needle pre-wash standard procedure [19]. The LC-MS/MS system consisted of an Agilent 1100 series LC with automatic liquid chromatographic sampler, injector, bi-pump and degasser; and Applied Biosystems/MDS Sciex API 3000 tandem quadrupole mass spectrometry equipped with electrospray ionization (ESI) interface using the following parameters: nebulizer gas (NEB):10, curtain gas (CUR): 7, collisionally activated dissociation gas (CAD): 12, ionspray voltage (IS): 5000 V, turbo ionspray temperature (TEM): 450°C. Nitrogen was used in all cases. The mass spectrometer was operated in the positive ion detection mode. […] The following linear gradient program was applied to the analyte with the mobile phase consisting of methanol (0.1% formic acid, solvent A) and NH4OAc (0.1% formic acid, solvent B): 0-1 min: 30-70% A; 1-2 min 70-90%; 2-8 min: 90-90%; 8-9 min: 90-30%, 9-18 min: 30-30%, v/v. […] The flow rate was maintained at […]. Pharmacokinetic parameters including maximum plasma concentration (Cmax), time to reach the maximum concentrations (Tmax), half-life (t1/2), area under concentration-time curve (AUC) and oral clearance (CL) were estimated by a non-compartmental analysis using the pharmacokinetic program, WinNonlin Standard Edition Version 1.1 (Scientific Consulting, Apex, NC, USA). All results were expressed as average mean ± standard deviation (S.D.). ANOVA was used to evaluate differences, and a value of P<0.05 was taken as statistically significant.

[2] = Stability of the analytes in rat plasma samples (freeze-thaw, short-term, long-term, autosampler); format: in vitro ADME; details: n = 3; for Stability (%) Autosampler stability: autosampler 8°C 12 h; for Stability (%) Short-term stability: room temperature 6 h; for Stability (%) Freeze-thaw stability: three freeze-thaw cycles; for Stability (%) Long-term stability: −20°C 14 days
Experimental: Stability was also assessed using the low, medium and high concentrations of analytes. Freeze-thaw stability was assessed over three freeze-thaw cycles. Short-term stability was determined by placing the samples at room temperature for 6 h. Long-term stability was evaluated by analyzing samples kept at −20°C for 14 days. Autosampler stability was determined by maintaining the samples at the autosampler temperature (8°C) for 12 h. All stabilities were calculating as the ratio of average concentration and freshly prepared samples.

[3] = rat plasma, BYHWT extract 10 g/kg p.o.
[4] = po, rat plasma, BYHWT extract 10 g/kg p.o., n = 6, read-out: Cmax
[5] = po, rat plasma, BYHWT extract 10 g/kg p.o., n = 6, read-out: Tmax (converted)
[6] = po, rat plasma, BYHWT extract 10 g/kg p.o., n = 6, read-out: t1/2

SMILES	Stability (%) Autosampler stability ([2]; concentration 1 (µg/mL)) [%]	Stability (%) Short-term stability ([2]; concentration 1 (µg/mL)) [%]	Stability (%) Freeze-thaw stability ([2]; concentration 1 (µg/mL)) [%]	Stability (%) Long-term stability ([2]; concentration 1 (µg/mL)) [%]	Stability (%) Autosampler stability ([2]; concentration 10 (µg/mL)) [%]	Stability (%) Short-term stability ([2]; concentration 10 (µg/mL)) [%]	Stability (%) Freeze-thaw stability ([2]; concentration 10 (µg/mL)) [%]	Stability (%) Long-term stability ([2]; concentration 10 (µg/mL)) [%]	Stability (%) Autosampler stability ([2]; concentration 100 (µg/mL)) [%]	Stability (%) Short-term stability ([2]; concentration 100 (µg/mL)) [%]	Stability (%) Freeze-thaw stability ([2]; concentration 100 (µg/mL)) [%]	Stability (%) Long-term stability ([2]; concentration 100 (µg/mL)) [%]	absorption phase in the plasma concentration-time curve [1, 3]	Cmax [1, 4] [ng/mL]	Tmax [1, 5] [min]	half-life [1, 6] [min]	other results
CC(=O)OC1C(O)COC(OC2CCC34CC35CCC3(C)C(C6(C)CCC(C(C)(C)O)O6)C(O)CC3(C)C5CC(OC3OC(CO)C(O)C(O)C3O)C4C2(C)C)C1OC(C)=O (stereo not shown) [Astragaloside I, astragaloside I]	−5.3±7.9	−3.6±8.0	4.6±3.6	−14±17	4.3±6.6	−4.1±10	3.8±2.7	−8.3±2.3	−4.9±7.0	−6.4±6.4	−1.8±5.4	−27±12	–	–	–	–	Cl ([1]; rat, in vivo, po): 90.5 ± 14 mL/min/kg; Cmax ([1]; rat, in vivo, po, 10 g/kg): 55 ± 7.8 ng/mL; Tmax ([1]; rat, in vivo, po, 10 g/kg): 40 min; half-life ([1]; rat, in vivo, po, 10 g/kg): 166 ± 28 min; AUC ([1]; rat, in vivo, po, 10 g/kg): 277 ± 43.3 ng·h/mL
CC(=O)O[C@H]1[C@H](O[C@H]2CC[C@]34C[C@]35CC[C@]3(C)[C@@H]([C@@]6(C)CC[C@@H](C(C)(C)O)O6)[C@@H](O)C[C@@]3(C)[C@@H]5C[C@H](O[C@@H]3O[C@H](CO)[C@@H](O)[C@H](O)[C@H]3O)[C@H]4C2(C)C)OC[C@@H](O)[C@@H]1O [Astragaloside II, astragaloside II]	13±10	2.4±12	4.4±3.6	8.7±10	−0.3±11	−1.3±1.9	−2.3±0.8	−0.8±16	−5.4±13	−6.8±5.7	0.4±1.2	1.7±21	–	–	–	–	Cl ([1]; rat, in vivo, po): 129 ± 15 mL/min/kg; Cmax ([1]; rat, in vivo, po, 10 g/kg): 30 ± 4.9 ng/mL; Tmax ([1]; rat, in vivo, po, 10 g/kg): 37 min; half-life ([1]; rat, in vivo, po, 10 g/kg): 212 ± 14 min; AUC ([1]; rat, in vivo, po, 10 g/kg): 190 ± 38.3 ng·h/mL
CC(C)(O)[C@@H]1CC[C@](C)([C@H]2[C@@H](O)C[C@@]3(C)[C@@H]4C[C@H](O[C@@H]5O[C@H](CO)[C@@H](O)[C@H](O)[C@H]5O)[C@H]5C(C)(C)[C@@H](O[C@@H]6OC[C@@H](O)[C@H](O)[C@H]6O)CC[C@@]56C[C@@]46CC[C@]23C)O1 [Astragaloside IV, astragaloside IV]	3.8±9.8	12±15	−3.2±5.0	−17±5.3	3.3	4.7±6.2	−4.1±3.4	−6.3±8.8	−8.6±12	1.6±9.1	6.1±0.4	2.1±13.5	double-peak absorption phase	–	–	–	Cmax ([1]; in vivo, po, rat plasma, BYHWT extract 10 g/kg p.o., n = 6, read-out: Cmax): 100 ± 16 ng/mL; Tmax ([1]; in vivo, po, rat plasma, BYHWT extract 10 g/kg p.o., n = 6, read-out: Tmax (converted)): 35 min; half-life ([1]; in vivo, po, rat plasma, BYHWT extract 10 g/kg p.o., n = 6, read-out: t1/2): 170 ± 8.3 min
COc1ccc(-c2coc3cc(O)ccc3c2=O)cc1O [Calycosin, calycosin]	–	–	–	–	−3.5±11	1.4±11	9.6±4.7	2.5±5.7	−2.2±3.5	14±12	8.6±3.8	17±5.2	single and plateau absorption phase	1230 ± 171	40	75 ± 11	AUC ([1]; rat plasma, BYHWT extract 10 g/kg p.o., n = 6): 5130 ± 1220 ng·h/mL; Stability (%) Autosampler stability ([2]; concentration 1000 (µg/mL)): 7.1±4.9%; Stability (%) Short-term stability ([2]; concentration 1000 (µg/mL)): 13±7.3%; Stability (%) Freeze-thaw stability ([2]; concentration 1000 (µg/mL)): 2.9±4.5%; Stability (%) Long-term stability ([2]; concentration 1000 (µg/mL)): 21±12%
COc1ccc(-c2coc3cc(O[C@@H]4O[C@H](CO)[C@@H](O)[C@H](O)[C@H]4O)ccc3c2=O)cc1O [Calycosin-7-O-β-D-glucoside, calycosin-7-O-β-D-glucoside]	−8.4±12	2.5±11	5.8±6.1	6.4±12	2.1±9.1	7.3±12	4.9±3.5	23±13	3.5±7.9	−0.1±0.9	7.0±1.2	20±12	single and plateau absorption phase	18 ± 4.1	32	338 ± 132	–
COc1ccc(-c2coc3cc(O)ccc3c2=O)cc1 [Formononetin, formononetin]	–	–	–	–	−13±4.1	−3.4±12	−4.9±3.8	−13±5.5	−4.6±11	1.1±10	5.8±10	−12±7.5	single and plateau absorption phase	98 ± 17	38	175 ± 13	Stability (%) Autosampler stability ([2]; concentration 1000 (µg/mL)): 0.8±12%; Stability (%) Short-term stability ([2]; concentration 1000 (µg/mL)): 1.5±10.4%; Stability (%) Freeze-thaw stability ([2]; concentration 1000 (µg/mL)): −3.5±6.0%; Stability (%) Long-term stability ([2]; concentration 1000 (µg/mL)): 1.0±6.4%
O=c1[nH]cnc2nc[nH]c12 [hypoxanthine]	–	–	–	–	–	–	–	–	–	–	–	–	–	–	–	–	observed in rat plasma after oral administration of BYHWT ([1]; preliminary experiments): could not be observed
